Data as given in publication PMC10427817, “Bioactivities of β-mangostin and its new glycoside derivatives synthesized by enzymatic reactions” (Royal Society Open Science, 2023).
Like-named read-outs stand apart in the source and are kept apart here.

Legend:
C6 cells = system: C6 cells; design: method as in PMID 34896543; details: C6 glioma cells; read-out: IC50, cell survival; cited from earlier work
Pseudomonas aeruginosa = experiment: Anti-microbial activity assay, P. aeruginosa; format: cell-based
Protocol: (§1) Bacterial and fungal strains (Bacillus subtilis, Staphylococcus aureus, Lactobacillus fermentum, Escherichia coli, Pseudomonas aeruginosa, Salmonella enterica and Candida albicans) were activated on TSA (Tryptic Soy Agar) and SA (Sabouraud–4% dextrose agar) media, respectively. Before the experiment, the microbial strains were grown in the corresponding liquid media at a concentration of approximately 5 × 10^5 CFU ml^−1 for bacteria and 1 × 10^3 CFU ml^−1 for fungi. The microbial suspension (190 µl) was mixed with 10 µl of the test sample, which was serially diluted twofold, and the microplate was incubated at 37°C for 16–24 h.

[1] = system: HEK293 embryonic kidney cells; experiment: MTT cytotoxicity assay, HEK293; format: cell-based, human; details: Homo sapiens, HEK293 healthy cell line, 72 h, mean ± s.d., three replicates
Protocol: (§2) The cytotoxic activities against the cancer cell lines KB epidermal carcinoma, A549 lung cancer, HepG2 liver cancer and MCF-7 breast cancer, as well as the healthy cell line HEK293 embryonic kidney cells, were determined using the 3-(4,5-dimethylthiazol-2-yl)-2,5-diphenyltetrazolium bromide (MTT) assay. Briefly, cell lines were grown into log phase at 37°C, 5% CO2 in DMEM-Dulbecco's modified Eagle's medium and 10% fetal bovine serum. A concentration of 1 × 10^4–3 × 10^4 cells ml^−1 was prepared depending on the cell line used for the experiment by adding 10 µl of the sample and 190 µl of the cell suspension, followed by incubation under standard conditions. After 72 h of culture, 10 µl of MTT (5 mg ml^−1) was added and incubated for 4 h. Dimethyl sulfoxide (100 µl) was added to dissolve formazan crystals and the density was measured at 540 nm using a BioTek spectrophotometer. The inhibition of cell growth was expressed as IC50 (the half-maximal inhibitory concentration) value. Ellipticine was used as reference.

MCF-7 breast cancer = experiment: MTT cytotoxicity assay, MCF-7; format: cell-based, human; details: Homo sapiens, MCF7, MCF-7 cell line, 72 h, mean ± s.d., three replicates
Protocol: as §2, with “value.” for “value. Ellipticine was used as reference.”

Candida albicans = experiment: Anti-microbial activity assay, C. albicans; format: cell-based
Protocol: as §1

α-glucosidase = details: ref 44; read-out: IC50, α-glucosidase inhibitory activity; cited from earlier work
HeLa and SiHa cells = details: cited from earlier work
[2] = system: hepatocellular carcinoma cell lines (Huh-7, SK-Hep-1, HA22T/VGH cell lines); details: cited from earlier work
KB epidermal carcinoma = experiment: MTT cytotoxicity assay, KB; format: cell-based, human; details: Homo sapiens, KB cell line, 72 h, mean ± s.d., three replicates
Protocol: as §2, with “value.” for “value. Ellipticine was used as reference.”

COc1cc2oc3cc(O)c(OC)c(CC=C(C)C)c3c(=O)c2c(O)c1CC=C(C)C [β-mangostin]
IC50 (C6 cells): 4.8 µM
MIC (Pseudomonas aeruginosa): greater than 32 μg ml^−1
IC50 (Pseudomonas aeruginosa; Pseudomonas aeruginosa): > 32 µg/mL
MIC (Pseudomonas aeruginosa; Pseudomonas aeruginosa, read-out: MIC): > 32 µg/mL
IC50 [1]: 15.6 ± 6.5 µM
IC50 (MCF-7 breast cancer): 18 ± 8.1 µM
MIC (Candida albicans): greater than 32 μg ml^−1
IC50 (Candida albicans; Candida albicans, read-out: IC50): > 32 µg/mL
MIC (Candida albicans; Candida albicans, read-out: MIC): > 32 µg/mL
IC50 (α-glucosidase): 14.4 µM
cytotoxicity or cell cycle suppression (HeLa and SiHa cells): did not cause cytotoxicity or cell cycle suppression
cytotoxicity or cell cycle suppression [2]: did not cause cytotoxicity or cell cycle suppression
IC50 (KB epidermal carcinoma): 21.1 ± 9.9 µM
